{"source": "patent US7041463B2", "about": "“Orthologues of human receptors and methods of use” (Pharmacopeia Drug Discovery, Inc., priority 2000, dated 2006)", "key": {"cloned rat NK1 receptor": {"molecular_target": "cloned rat NK1 receptor (Rattus norvegicus, UniProt P14600)", "sequence (P14600 whole entry)": "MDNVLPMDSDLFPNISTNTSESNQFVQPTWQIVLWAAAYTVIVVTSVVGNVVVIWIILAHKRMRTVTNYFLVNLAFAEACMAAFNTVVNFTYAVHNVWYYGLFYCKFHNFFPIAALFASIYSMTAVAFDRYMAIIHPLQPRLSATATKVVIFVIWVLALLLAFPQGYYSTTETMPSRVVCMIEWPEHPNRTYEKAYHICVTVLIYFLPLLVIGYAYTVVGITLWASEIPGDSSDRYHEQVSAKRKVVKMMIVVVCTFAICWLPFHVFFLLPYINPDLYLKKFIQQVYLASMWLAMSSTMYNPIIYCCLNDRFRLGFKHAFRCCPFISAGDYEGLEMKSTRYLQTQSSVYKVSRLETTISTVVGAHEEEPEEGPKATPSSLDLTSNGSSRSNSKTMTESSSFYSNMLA", "settings": "cited from earlier work"}, "[1]": {"molecular_target": "T1, cholecystokinin-B receptor (Homo sapiens, UniProt P32239)", "T1 sequence (P32239 1-447 V349L)": "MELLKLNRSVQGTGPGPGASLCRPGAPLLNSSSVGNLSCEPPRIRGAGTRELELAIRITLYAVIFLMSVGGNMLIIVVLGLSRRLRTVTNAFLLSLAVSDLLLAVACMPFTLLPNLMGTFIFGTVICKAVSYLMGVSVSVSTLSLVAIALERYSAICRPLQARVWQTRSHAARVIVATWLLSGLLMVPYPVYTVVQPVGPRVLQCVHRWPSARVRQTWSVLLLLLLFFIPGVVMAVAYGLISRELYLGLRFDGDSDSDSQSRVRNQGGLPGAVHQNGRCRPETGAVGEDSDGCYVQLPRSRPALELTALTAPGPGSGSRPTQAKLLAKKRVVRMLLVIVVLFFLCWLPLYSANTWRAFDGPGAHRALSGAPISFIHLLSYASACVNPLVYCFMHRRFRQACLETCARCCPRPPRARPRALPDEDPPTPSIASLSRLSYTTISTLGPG", "settings": "human receptor with valine 319 substituted by leucine vs human receptor; cited from earlier work"}, "rabbit B1": {"molecular_target": "T2, rabbit B1 (Oryctolagus cuniculus, UniProt P48748)", "T2 construct": "expressed in transfected cells; host or cells: 293-EBNA (293E) cells, membranes", "T2 sequence (P48748 1-352)": "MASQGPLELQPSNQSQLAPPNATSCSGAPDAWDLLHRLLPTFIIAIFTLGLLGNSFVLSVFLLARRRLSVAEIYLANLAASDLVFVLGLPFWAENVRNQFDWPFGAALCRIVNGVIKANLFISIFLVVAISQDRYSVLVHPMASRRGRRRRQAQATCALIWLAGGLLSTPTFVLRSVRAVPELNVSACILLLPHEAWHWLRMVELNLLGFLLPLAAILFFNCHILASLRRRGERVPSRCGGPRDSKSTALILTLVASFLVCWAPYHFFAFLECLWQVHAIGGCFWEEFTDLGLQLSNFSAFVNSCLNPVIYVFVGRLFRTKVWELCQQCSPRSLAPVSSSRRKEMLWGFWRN", "assay": "[3H]-des-Arg10-kallidin binding, 293E membranes, rabbit B1", "settings": "0.6 nM [3H]-dAKd", "protocol": "(§1) Membrane preparations for use in accordance with the methods of the present invention were generated as follows. 293E cells expressing B1 receptors were harvested and pelleted. Cells were washed once with PBS and once with a membrane buffer (for example, 10 mM HEPES pH 7.5, 1 μM phosphoramidon, 3 μM amastatin, 1 μM captopril, 2 μM dithiothreitol (DTT)). Cells were resuspended in membrane buffer and Dounce homogenized on ice 35 times. The membranes were collected by centrifugation at 15,000×g for 30 min. at 4° C. and resuspended in membrane buffer containing 0.2% bovine serum albumin (BSA) at a final concentration of approximately 5×10^7 cell equivalents per ml. Aliquots were flash frozen and stored at −80° C. Frozen aliquots were subsequently thawed, diluted, and sonicated on ice using a Branson Sonifier® 250 (4×5 sec, 40% output).\n(§2) Prior to use in a binding assay, a membrane preparation is “calibrated” as described below to determine the amount of membrane preparation to be used. […]\n(§3) The method of the present invention employs a binding assay such as the one described below. […] 50 μl of scintillation fluid was added to each well and plates were counted in a Wallac Microbeta® TriLux for 10 min. per well."}, "pig B1": {"molecular_target": "pig B1", "sequence (as listed by the source)": "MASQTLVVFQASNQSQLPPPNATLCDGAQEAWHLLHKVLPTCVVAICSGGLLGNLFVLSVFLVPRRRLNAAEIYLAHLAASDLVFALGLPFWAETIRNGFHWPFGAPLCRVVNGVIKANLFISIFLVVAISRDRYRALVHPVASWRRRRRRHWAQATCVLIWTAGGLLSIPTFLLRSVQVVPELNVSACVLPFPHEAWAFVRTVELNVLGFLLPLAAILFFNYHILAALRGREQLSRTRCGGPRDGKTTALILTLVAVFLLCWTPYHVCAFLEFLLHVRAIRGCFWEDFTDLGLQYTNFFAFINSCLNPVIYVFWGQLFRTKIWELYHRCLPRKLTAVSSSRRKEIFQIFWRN", "assay": "[3H]-des-Arg10-kallidin binding, 293E membranes, pig B1", "settings": "0.6 nM [3H]-dAKd", "protocol": "as §1, §2, §3"}, "tree shrew B1 receptor": {"molecular_target": "tree shrew B1 receptor", "sequence (as listed by the source)": "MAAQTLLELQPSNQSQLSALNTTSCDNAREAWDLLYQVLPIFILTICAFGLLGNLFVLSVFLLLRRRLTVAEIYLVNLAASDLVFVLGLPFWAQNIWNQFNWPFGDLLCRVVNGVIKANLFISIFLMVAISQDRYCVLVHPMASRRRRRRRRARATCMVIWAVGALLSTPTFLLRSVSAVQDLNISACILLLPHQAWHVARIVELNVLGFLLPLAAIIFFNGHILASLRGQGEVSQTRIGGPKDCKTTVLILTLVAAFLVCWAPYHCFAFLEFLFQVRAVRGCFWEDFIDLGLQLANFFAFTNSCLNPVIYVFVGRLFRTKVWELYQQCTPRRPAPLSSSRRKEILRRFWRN", "assay": "[3H]-des-Arg10-kallidin binding, 293E membranes, tree shrew B1", "parameters": "species or system tree shrew (Tupaia minor)", "settings": "0.6 nM [3H]-dAKd", "protocol": "as §1, §2, §3"}, "human B1 receptor": {"molecular_target": "T3, human B1 receptor (Homo sapiens, UniProt P46663)", "T3 construct": "expressed in transfected cells; host or cells: 293-EBNA (293E) cells, membranes", "T3 sequence (P46663 1-353)": "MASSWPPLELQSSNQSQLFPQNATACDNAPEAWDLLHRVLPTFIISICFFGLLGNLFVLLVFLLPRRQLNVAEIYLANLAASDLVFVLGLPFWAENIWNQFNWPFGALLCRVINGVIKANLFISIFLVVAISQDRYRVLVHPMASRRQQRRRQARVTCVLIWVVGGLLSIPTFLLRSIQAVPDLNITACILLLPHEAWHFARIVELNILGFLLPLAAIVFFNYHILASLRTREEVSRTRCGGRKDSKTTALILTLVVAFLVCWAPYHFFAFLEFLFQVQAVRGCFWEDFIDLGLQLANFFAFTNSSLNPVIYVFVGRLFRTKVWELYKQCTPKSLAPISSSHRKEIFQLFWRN", "assay": "[3H]-des-Arg10-kallidin binding, 293E membranes, human B1", "settings": "0.6 nM [3H]-dAKd", "excerpt": "Prior to use in a binding assay, a membrane preparation is “calibrated” as described below to determine the amount of membrane preparation to be used. A frozen sample of a membrane preparation is thawed and the preparation diluted in assay buffer to obtain several different concentrations of membranes, for example, 1:5, 1:10, 1:20, 1:40 and so on. The diluted membrane preparation is sonicated in a bath style sonicator for 15 seconds at room temperature. […]"}, "dog B1": {"molecular_target": "T4, dog B1 (Canis lupus familiaris, UniProt Q9BDQ5, D322E/F324Y/R319K)", "T4 construct": "the chimeric canine/human receptor described above was used in the experiments described below; C-terminal cytoplasmic tail of human bradykinin B1 receptor (fusion partner of the chimera); expressed in transfected cells; host or cells: 293-EBNA (293E) cells, membranes", "T4 sequence (Q9BDQ5 with tags, fused parts or gaps R319K/D322E/F324Y)": "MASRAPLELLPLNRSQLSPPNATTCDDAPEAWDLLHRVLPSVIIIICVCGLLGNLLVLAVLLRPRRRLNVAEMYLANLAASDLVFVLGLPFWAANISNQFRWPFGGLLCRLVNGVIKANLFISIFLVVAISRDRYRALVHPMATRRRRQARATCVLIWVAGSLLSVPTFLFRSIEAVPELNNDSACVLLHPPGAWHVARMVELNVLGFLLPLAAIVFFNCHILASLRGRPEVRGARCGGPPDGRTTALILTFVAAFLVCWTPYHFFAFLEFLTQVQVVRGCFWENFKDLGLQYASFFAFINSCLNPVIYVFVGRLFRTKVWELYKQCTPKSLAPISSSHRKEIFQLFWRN", "assay": "[3H]-des-Arg10-kallidin binding, 293E membranes, dog B1 (canine/human chimera)", "settings": "0.6 nM [3H]-dAKd", "from_the_text": "Additionally, a canine/human chimeric bradykinin B1 receptor comprising amino acids 1 to 320 of the canine sequence and amino acids 319–353 of human bradykinin B1 receptor was generated. Any number of chimeric molecules, for example, a chimera comprising amino acids 1–315 of the canine sequence and amino acids 314–353 of the human sequence can be used.\nas §1, with “Frozen aliquots were subsequently thawed, diluted, and sonicated on ice using a Branson Sonifier® 250 (4×5 sec, 40% output).” left out\nas §3"}, "[2]": {"molecular_target": "rhesus macaque B1 receptor", "sequence (as listed by the source)": "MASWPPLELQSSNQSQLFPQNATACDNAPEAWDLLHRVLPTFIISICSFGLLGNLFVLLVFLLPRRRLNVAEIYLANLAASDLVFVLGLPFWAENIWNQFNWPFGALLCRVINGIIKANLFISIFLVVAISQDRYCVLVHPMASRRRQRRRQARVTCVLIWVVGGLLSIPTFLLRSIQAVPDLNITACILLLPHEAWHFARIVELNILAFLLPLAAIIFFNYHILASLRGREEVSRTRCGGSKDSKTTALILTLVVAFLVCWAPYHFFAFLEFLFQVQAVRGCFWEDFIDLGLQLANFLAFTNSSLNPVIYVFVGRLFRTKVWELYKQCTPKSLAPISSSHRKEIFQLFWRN", "assay": "[3H]-des-Arg10-kallidin binding, 293E membranes, rhesus macaque B1", "parameters": "species or system rhesus macaque (Macaca mulatta)", "settings": "0.6 nM [3H]-dAKd", "protocol": "as §1, §2, §3"}}, "note": "pIC50: −log10 of the molar value."}
{"molecule": "COc1ccccc1CN[C@H]1C2CCN(CC2)[C@H]1C(c1ccccc1)c1ccccc1", "note": "[CP-96,345]", "values": [{"measurement": "pIC50", "setting": "cloned rat NK1 receptor", "result": 7.40}]}
{"molecule": "Cc1cccc(NC(=O)N[C@@H]2N=C(c3ccccc3)c3ccccc3N(C)C2=O)c1", "note": "[Compound L365260]", "values": [{"measurement": "decrease of binding affinity", "setting": "[1]", "result": 20, "unit": "fold"}]}
{"molecule": "[des-Arg^9]BK (RPPGFSPF) [dABk]", "values": [{"measurement": "affinity (K1) at rabbit B1, in words", "setting": "rabbit B1", "result": "weak activity"}, {"measurement": "affinity (K1) at pig B1, in words", "setting": "pig B1", "result": "weak activity"}, {"measurement": "affinity (K1) at tree shrew B1, in words", "setting": "tree shrew B1 receptor", "result": "inactivity"}, {"measurement": "affinity (K1) at human B1, in words", "setting": "human B1 receptor", "result": "inactivity"}, {"measurement": "affinity (K1) at dog B1, in words", "setting": "dog B1", "result": "low nM potency"}, {"measurement": "affinity (K1) at rhesus macaque B1, in words", "setting": "[2]", "result": "inactivity"}]}
